# From patent publication US6127136A, “Detection of dioxin-like compounds by detection of transformed Ah receptor/ARNT complex” (Paracelsian, Inc., priority 1996, dated 2000)
# Target: transformed Ah receptor/ARNT complex (Cavia porcellus, UniProt Q6J287)
# Assay: Ah-ELISA, optimization of salt concentration
# Assay type: biochemical, guinea pig (hepatic cytosol)
# Design: from tissue; host or cells: hepatic cytosol of male Hartley guinea pigs (animals from Cornell Research Animal Resources)
# Method: The reagents and ELISA plate were prepared as described in Example 7, except the anti-Rabbit/alkaline phosphatase (Sigma, St. Louis, Mo.) was prepared to make a 1:4000 dilution. The final DRE dilution was 31.2 pmol per well. The final dilution of anti-ARNT was 0.275 ug per mL. The DRE was 1/32 of the highest dilution, which corresponds to a final dilution of 0.25 nmol/uL hybridized DRE x 10.6 uL DRE/1700 uL cytosol or 31.2 pmol per well. All other concentrations were the same. All assays were run at approximately 30° C.
# The salt concentration during cytosol incubation was varied from 150 mM to 255 mM NaCl at 15 mM increments with a 0 mM NaCl control for with either DMSO or TCDD to determine the effect of salt concentration on background detection. Thus, the assay was run on samples with DMSO (-) or TCDD (+) added at the concentrations taught in Example 7.
# transformed Ah receptor/ARNT complex, sequence (Q6J287 1-846): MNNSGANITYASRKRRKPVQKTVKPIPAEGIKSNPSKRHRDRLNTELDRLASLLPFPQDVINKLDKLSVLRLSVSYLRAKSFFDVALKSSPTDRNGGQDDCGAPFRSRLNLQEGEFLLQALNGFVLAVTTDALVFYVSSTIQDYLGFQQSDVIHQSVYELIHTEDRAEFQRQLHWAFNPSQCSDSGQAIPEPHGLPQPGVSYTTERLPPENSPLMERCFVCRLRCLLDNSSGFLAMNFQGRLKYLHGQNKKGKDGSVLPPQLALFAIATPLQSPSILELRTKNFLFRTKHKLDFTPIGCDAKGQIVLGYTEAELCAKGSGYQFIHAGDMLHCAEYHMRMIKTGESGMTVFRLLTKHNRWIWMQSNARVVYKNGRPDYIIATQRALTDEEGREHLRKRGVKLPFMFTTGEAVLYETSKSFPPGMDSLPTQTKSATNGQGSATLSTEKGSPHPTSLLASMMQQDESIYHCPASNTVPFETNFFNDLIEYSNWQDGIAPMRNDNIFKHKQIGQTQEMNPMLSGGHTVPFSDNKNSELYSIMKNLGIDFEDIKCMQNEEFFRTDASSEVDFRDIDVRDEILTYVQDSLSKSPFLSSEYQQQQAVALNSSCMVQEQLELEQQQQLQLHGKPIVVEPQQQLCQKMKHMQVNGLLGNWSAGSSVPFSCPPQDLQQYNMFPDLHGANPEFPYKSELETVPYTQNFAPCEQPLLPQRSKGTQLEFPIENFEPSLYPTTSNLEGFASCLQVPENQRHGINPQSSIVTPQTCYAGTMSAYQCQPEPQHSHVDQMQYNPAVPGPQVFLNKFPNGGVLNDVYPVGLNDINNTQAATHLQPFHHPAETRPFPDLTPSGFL
# transformed Ah receptor/ARNT complex, sequence (Q0WXX3 1-790 partner): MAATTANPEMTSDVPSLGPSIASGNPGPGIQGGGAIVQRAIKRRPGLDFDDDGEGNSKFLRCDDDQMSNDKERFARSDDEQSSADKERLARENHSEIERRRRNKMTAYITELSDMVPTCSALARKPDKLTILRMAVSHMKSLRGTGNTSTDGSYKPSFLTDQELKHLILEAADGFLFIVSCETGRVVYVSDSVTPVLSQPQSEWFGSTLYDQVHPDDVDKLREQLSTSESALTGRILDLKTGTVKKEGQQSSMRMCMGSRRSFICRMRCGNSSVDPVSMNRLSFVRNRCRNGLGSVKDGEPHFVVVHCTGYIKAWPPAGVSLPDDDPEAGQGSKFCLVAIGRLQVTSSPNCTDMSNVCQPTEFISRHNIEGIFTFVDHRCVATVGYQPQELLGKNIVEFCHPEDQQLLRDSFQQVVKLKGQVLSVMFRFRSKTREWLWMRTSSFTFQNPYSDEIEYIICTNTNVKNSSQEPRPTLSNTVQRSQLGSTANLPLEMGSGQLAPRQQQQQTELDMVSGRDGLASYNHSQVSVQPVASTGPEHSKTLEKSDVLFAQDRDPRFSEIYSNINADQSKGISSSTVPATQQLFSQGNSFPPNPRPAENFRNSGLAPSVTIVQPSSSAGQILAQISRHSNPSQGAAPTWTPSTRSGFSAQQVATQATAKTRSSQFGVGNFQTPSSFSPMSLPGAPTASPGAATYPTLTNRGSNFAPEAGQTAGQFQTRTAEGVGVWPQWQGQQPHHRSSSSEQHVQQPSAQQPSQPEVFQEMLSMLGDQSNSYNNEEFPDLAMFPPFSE
smiles,measurement,setting,value
"Clc1cc2c(cc1Cl)Oc1cc(Cl)c(Cl)cc1O2 [TCDD, 2,3,7,8-tetrachlorodibenzo-p-dioxin]",DIFF,0 mM NaCl,1879
same,RATIO,0 mM NaCl,6.298
same,ELISA signal (+),"0 mM NaCl, TCDD (+)",2233
same,DIFF,150 mM NaCl,2587
same,RATIO,150 mM NaCl,18.03
same,ELISA signal (+),"150 mM NaCl, TCDD (+)",2739
same,DIFF,165 mM NaCl,2625
same,RATIO,165 mM NaCl,21
same,ELISA signal (+),"165 mM NaCl, TCDD (+)",2756
same,DIFF,180 mM NaCl,2661
same,RATIO,180 mM NaCl,25.96
same,ELISA signal (+),"180 mM NaCl, TCDD (+)",2767
same,DIFF,195 mM NaCl,2609
same,RATIO,195 mM NaCl,26.35
same,ELISA signal (+),"195 mM NaCl, TCDD (+)",2712
same,DIFF,210 mM NaCl,2215
same,RATIO,210 mM NaCl,26.29
same,ELISA signal (+),"210 mM NaCl, TCDD (+)",2303
same,DIFF,225 mM NaCl,1697
same,RATIO,225 mM NaCl,21.89
same,ELISA signal (+),"225 mM NaCl, TCDD (+)",1779
same,DIFF,240 mM NaCl,1333
same,RATIO,240 mM NaCl,16.76
same,ELISA signal (+),"240 mM NaCl, TCDD (+)",1418
same,DIFF,255 mM NaCl,1109
same,RATIO,255 mM NaCl,12.07
same,ELISA signal (+),"255 mM NaCl, TCDD (+)",1210
same,DIFF,column S9,86.67
same,RATIO,column S9,1.667
same,ELISA signal (+),"column S9, TCDD (+)",216.6
same,salt concentration giving best ratio of background to detection of TCDD,during cytosol incubation,180-195 mM NaCl
